Experimental findings from patent US20090227606A1, “Methods for Preventing or Treating Acute and Chronic Pain” (priority 2006, published 2009) are described below.

For one assay, the system named is GLT-1. Kind of assay: Immunohistochemistry of rat lumbar spinal cord, GLT-1. The assay is classed as in vivo. The note with it: day 12 post-transection, ipsilateral vs contralateral. The procedure: For assessment of GFAP, GLT-1 and GLAST immunoreactivity, a separate group of rats (n=4/treatment) were anesthetized and transcardially perfused with 0.1 M PBS (phosphate-buffered saline), pH 7.4, followed by 4% paraformaldehyde in PBS on day 12 post-L5 spinal nerve transection. Lumbar spinal cord sections were identified, isolated, and processed as described previously (Colburn, R. W. et al. 1997. J. Neuroimmunol. 79:163-175). Free-floating, […] were cut in a cryostat and processed for immunofluorescence. Sections were blocked with 5% FBS/0.1% Triton-X 100 for 1 hour at room temperature (RT). For double immunofluorescence, spinal sections were incubated with a mixture of rabbit polyclonal anti-GLT-1 (1:500) or guinea pig anti-GLAST (1:5000, Chemicon, Temecula, Calif.), and mouse anti-GFAP G-A-5 (astrocyte marker, 1:400, Sigma Chemical Co., St. Louis, Mo.) in 3% FBS/0.1% triton-X 100/TBS over night at 4° C., washed, incubated in a mixture of goat anti-rabbit Alexa Fluor™-555 and goat anti-mouse Alexa Fluor™-488 (1:250, Molecular Probes, Eugene, Oreg.) secondary antibodies in 3% FBS/0.1% triton-X 100/TBS for 1 hour at RT. To control for nonspecific staining, control sections were incubated in the absence of primary antibodies. The sections were examined with a fluorescence microscope, and images were captured with a Q-Fire cooled camera. […]

The test system of a further assay is GFAP. Kind of assay: GFAP expression in mouse spinal cord dorsal horn. Type of assay: in vivo. As to conditions: dorsal horn upper laminae, day 12, 10 mg/kg i.p. daily. Here is the method:
With these in vivo data collected, further experiments were performed in the transgenic mice to more clearly define the effects of propentofylline treatment on GLT-1 and GLAST in the spinal cord. As discussed above, following in vivo testing, mice were transcardially perfused and tissue was fixed with paraformaldehyde. Lumbar spinal cord sections were identified and post-fixed in paraformaldehyde. After one week in sucrose to prevent freeze fracture, spinal cord segments were frozen in dry ice, mounted and prepared with cryostat sectioning. Sections were then subjected to immunohistochemical analysis. […] In order to quantitate the relative number of eGFP (marker for GLT-1) or DsRed (marker for GLAST) puncta in each spinal cord dorsal horn, images using a fluorescence microscope were taken with a Q-Fire cooled camera (397 ms exposure). […] An observer blind to the treatment groups was used to count the relative number of GLT-1 or GLAST positive puncta in the ipsilateral (injured) dorsal horn versus the contralateral (non-injured) dorsal horn. […]
As described previously with rats, mice were transcardially perfused with 0.1 M PBS (phosphate-buffered saline), pH 7.4, followed by 4%-paraformaldehyde in PBS on day 12 post-L5 spinal nerve transection. […] The sections were examined with a fluorescence microscope, and images were captured with a Q-Fire cooled camera. […]

Molecules are shown by their SMILES.

On to `CCCn1cnc2c1c(=O)n(CCCCC(C)=O)c(=O)n2C` [propentofylline], for which the “GLT-1 immunoreactivity in dorsal horn” value in the assay on GLT-1 is “no qualitative difference in GLT-1 between ipsilateral and contralateral dorsal horns”. The “injury-induced GFAP expression” value in the assay on GFAP was “suppressed injury-induced GFAP expression”.
